SMILES strings stand for the structures. Structures can show the parent of a compound that is named as a salt.

In this assay the test system is NLRP3. Put plainly: THP-1 cells pyroptosis assay (LPS + nigericin, resazurin read-out). Type of assay: cell-based. Conditions: Homo sapiens, 1 μg/ml LPS, 5 μM nigericin, NLRP3 inhibitory activity. As for the experimental part:
THP-1 cells (ATCC #TIB-202) were grown in RPMI containing L-glutamine (Gibco #11835) supplemented with 1 mM sodium pyruvate (Sigma #S8636) and penicillin (100 units/ml)/streptomycin (0.1 mg/ml) (Sigma #P4333) in 10% Fetal Bovine Serum (FBS) (Sigma #F0804). The cells were routinely passaged and grown to confluency (˜10^6 cells/ml). On the day of the experiment, THP-1 cells were harvested and resuspended into RPMI medium (without FBS). The cells were then counted and viability (>90%) checked by Trypan blue (Sigma #T8154). Appropriate dilutions were made to give a concentration of 625,000 cells/ml. To this diluted cell solution was added LPS (Sigma #L4524) to give a 1 μg/ml Final Assay Concentration (FAC). 40 μl of the final preparation was aliquoted into each well of a 96-well plate. The plate thus prepared was used for compound screening. The following method step-by-step assay was followed for compound screening. • 1. Seed THP-1 cells (25,000 cells/well) containing 1.0 μg/ml LPS in 40 μl of RPMI medium (without FBS) in 96-well, black walled, clear bottom cell culture plates coated with poly-D-lysine (VWR #734-0317) • 2. Add 5 μl compound (8 points half-log dilution, with 10 μM top dose) or vehicle (DMSO 0.1% FAC) to the appropriate wells • 3. Incubate for 3 hrs at 37° C., 5% CO2 • 4. Add 5 μl nigericin (Sigma #N7143) (FAC 5 μM) to all wells • 5. Incubate for 1 hr at 37° C., 5% CO2 • 6. At the end of the incubation period, spin plates at 300×g for 3 mins and remove supernatant • 7. Then add 50 μl of resazurin (Sigma #R7017) (FAC 100 μM resazurin in RPMI medium without FBS) and incubate plates for a further 1-2 hrs at 37° C. and 5% CO2 • 8. Plates were read in an Envision reader at Ex 560 nm and Em 590 nm • 9. IC50 data is fitted to a non-linear regression equation (log inhibitor vs response-variable slope 4-parameters) [table]
Background: Resazurin is reduced to fluorescent resorufin, in cell work by metabolically active cells.
In the case of `COC1(c2cc(S(=O)(=O)NC(=O)Cc3c4c(cc5c3CCC5)CCC4)nn2C(C)C)COC1` [Example 1, 2-(1,2,3,5,6,7-Hexahydro-s-indacen-4-yl)-N-((1-isopropyl-5-(3-methoxyoxetan-3-yl)-1H-pyrazol-3-yl)sulfonyl)acetamide], the IC50 – broadly, the concentration that inhibits the measured activity by half – is ≤ 5 µM. As for `COC1(c2cc(S(=O)(=O)NC(=O)Cc3c(-c4ccnc(C#N)c4)ccc4c3CCC4)nn2C(C)C)COC1` [Example 2, 2-(5-(2-Cyanopyridin-4-yl)-2,3-dihydro-1H-inden-4-yl)-N-((1-isopropyl-5-(3-methoxyoxetan-3-yl)-1H-pyrazol-3-yl)sulfonyl)acetamide, potassium Salt], the figure is ≤ 10 µM; as for `COC1(c2cc(S(=O)(=O)NC(=O)Cc3c4c(cc5c3CCC5)CCC4)nn2C2CC2)COC1` [Example 3, N-((1-Cyclopropyl-5-(3-methoxyoxetan-3-yl)-1H-pyrazol-3-yl)sulfonyl)-2-(1,2,3,5,6,7-hexahydro-s-indacen-4-yl)acetamide], ≤ 5 µM.

`COC(C)(C)Cn1ccc(S(=O)(=O)NC(=O)Cc2c3c(cc4c2CCC4)CCC3)n1` [Example 4, 2-(1,2,3,5,6,7-Hexahydro-s-indacen-4-yl)-N-((1-(2-methoxy-2-methylpropyl)-1H-pyrazol-3-yl)sulfonyl)acetamide]: the IC50 was ≤ 5 µM. Consider `COC1(c2cc(S(=O)(=O)NC(=O)Cc3c(C(C)C)cc(F)cc3C(C)C)nn2C(C)C)COC1` [Example 5, 2-(4-Fluoro-2,6-diisopropylphenyl)-N-((1-isopropyl-5-(3-methoxyoxetan-3-yl)-1H-pyrazol-3-yl)sulfonyl)acetamide], for which the half-maximal inhibitory concentration (IC50) is ≤ 5 µM. `CC(C)c1cc(F)cc(C(C)C)c1CC(=O)NS(=O)(=O)c1ccn(C[C@@H](C)O)n1` [Example 6, (R)-2-(4-Fluoro-2,6-diisopropylphenyl)-N-((1-(2-hydroxypropyl)-1H-pyrazol-3-yl)sulfonyl)acetamide]: the IC50 is ≤ 5 µM.

In the case of `COc1cc(-c2cc(F)cc(C(C)C)c2CC(=O)NS(=O)(=O)c2cnn(CC(C)(C)O)c2)ccn1` [Example 7], the IC50 was ≤ 5 µM. As for `COCC(C)(C)n1ccc(S(=O)(=O)NC(=O)Cc2c(-c3ccnc(OC)c3)cc(F)cc2C(C)C)n1` [Example 8], the figure is ≤ 5 µM; as for `COc1cc(-c2cc(F)cc(C(C)C)c2CC(=O)NS(=O)(=O)c2ccn(C(C)(C)CO)n2)ccn1` [Example 9], ≤ 5 µM.

Values taken from US11834433B2, “Compounds” (INFLAZOME LIMITED, priority 2018, dated 2023).
